Data set [1] deals with Ba/F3 cell line with a c-kit D816V mutation. As to the kind of experiment: Growth inhibition of c-kit D816V Ba/F3 cell line (Celltiter glo). The data set is classed as cell-based. The settings on record: GI50 comparison, Table 1. As to the method:
Specifically, 100 μl of a Ba/F3 cell line with a c-kit D816V mutation (FIG. 1) was added to each well of a 96-well plate at a concentration of 10,000 cells/100 μl. After 4 hours, 100 μl of the Ba/F3 cell line was treated with 0.5 μl of each of control compounds and PHI-101 (10-point 1:3 serial dilutions) to a final concentration of up to 50 μM, and cultured at 37° C. under 5% CO2 for 72 hours. As the control compounds, imatinib and sunitinib which are c-kit inhibitors were used. After culture, the cells were counted using a Celltiter glo assay kit (Promega), and the 50% growth inhibition values (GI50, μM) of the control compounds and PHI-101 were measured.
Background: ATP-based viability assays read luminescence as a measure of living cells.

Data set [2] deals with c-kit D816V mutant Ba/F3 cell line. As to the kind of experiment: Annexin V-PI FACS apoptosis analysis, c-kit D816V Ba/F3. It counts as cell-based. The settings on record: 0.1, 1 and 10 μM, 24 hours, FIG. 3. The protocol:
Specifically, the c-kit D816V mutant Ba/F3 cell line was adjusted to a concentration of 1×10^6 cells/ml and treated with each of PHI-101 at concentrations of 0.1, 1 and 10 μM and the control compound sunitinib at concentrations of 1 and 10 μM for 24 hours. Thereafter, the medium was removed and the cells were washed once with 1 ml PBS. The PBS was removed by centrifugation at 1,000 rpm for 5 minutes. The cells were dissolved in 100 μl of PBS containing Ca^2+ and Mg^2+ and allowed to react with 5 μl of Annexin V for 20 minutes. After completion of the reaction, 400 μl of PBS containing Ca^2+ and Mg^2+ was added, and 5 μl of propidium iodide (PI) was added, and then the degree of apoptotic cell death was analyzed by FACS (fluorescence activated cell sorter) assay using a flow cytometer (FACS-C6, BD).

For data set [3], the system named is c-kit phosphorylation and downstream signaling (p-STAT5, p-AKT, p-ERK) in HMC-1.2 cell line. As to the kind of experiment: Western blot of c-kit phosphorylation and downstream signaling in HMC-1.2. It counts as cell-based. Conditions: FIG. 6. As to the method: Specifically, the c-kit D816V mutant Ba/F3 cell line was dispensed at a concentration of 1×10^6 cells/ml, treated with each of the control compounds and PHI-101 at concentrations of 0.1, 1 and 10 μM, and then cultured for 2 hours. Next, lysates of the cells were obtained using lysis buffer (50 mM Tris-HCl pH 7.5, 1% NP40, 1 mM EDTA, 150 mM NaCl, 5 mM, Na3VO4 and 2.5 mM NaF, and a protease inhibitor cocktail). Equal amounts of the cell lysates were electrophoresed using 8% SDS-PAGE gel at 100 V for 1 hour and 30 minutes, and the separated protein was electrically transferred to nitrocellulose membranes. The membranes were blocked with 5% skim milk at room temperature for 30 minutes, and allowed to react with primary antibodies (diluted 1:5,000), including p-c-kit tyrosine 719 (Y719), p-STAT3 tyrosine 705 (Y705) and p-ERK1/2 threonine 202/tyrosine 204 (T202/Y204) at 4° C. for 16 to 20 hours. […] Next, the membranes were washed three times with TBST for 5 minutes each time and treated with a chemiluminescent substrate reagent, and the expression level of the protein was measured by detecting luminescence with an X-ray film in the dark.
The inhibitory activities of control compounds and PHI-101 against c-kit phosphorylation and downstream signaling (p-STAT5, p-AKT, p-ERK) in a mastocytosis cell line were measured, and as the control compounds, imatinib and sunitinib were used. […]

Data set [4] in a line: Body weight monitoring in mastocytosis mouse model. It counts as in vivo, NOD SCID female mice. Conditions: 80 mg/kg oral once daily for 3 weeks. The protocol: Thereafter, when the average tumor volume reached 150 to 200 mm^3, 4 mice were assigned to each group so that the average tumor volume at each group and treatment time was the same between the groups. Then, each of imatinib at a dose of 90 mg/kg, sunitinib at doses of 20 and 40 mg/kg, and PHI-101 at doses of 7, 20, 40 and 80 mg/kg was administered orally to the mice once daily for 3 weeks. For oral administration, each compound was dissolved in 5% 1-methyl-2-pyrrolidone and then completely mixed in 15% Kolliphor, 30% PEG E400 HS15 and 50% 0.05M citric acid.
Specifically, while the presence or absence of abnormalities in the mastocytosis mouse model of Example 3-1 was monitored daily by checking the skin condition, bleeding and stool status, whether the body weight changed was checked by measuring the mouse body weight at intervals of 3 days after the start of oral administration of each drug. In addition, the width and length of the tumor were measured using a caliper at 3-day intervals, and the tumor volume was calculated using the following equation.

As to `NC(=O)Nc1cc(C#Cc2cccc(F)c2)sc1C(=O)N[C@H]1CCCNC1` [PHI-101], in data set [1], the “selectivity for c-kit D816V Ba/F3 over parental Ba/F3” value is “higher selectivity for the c-kit D816V Ba/F3 mutant cell line than for the parental Ba/F3 cell line”. Also, the “apoptosis induction (Annexin V-PI FACS)” value in data set [2] is on record as “strongly induced apoptosis even at a concentration of 0.1 μM”. Also, the downstream signaling inhibition entry in data set [3] (0.1 μM) is given as “strongly inhibited downstream signaling”. The “c-kit phosphorylation and downstream signaling” value in data set [3] (0.01, 0.1 and 1 μM) is “decreased c-kit phosphorylation and downstream signaling in a concentration-dependent manner”. In addition, the weight loss entry in data set [4] is on record as “no weight loss”.

Source of the values: US20230263792A1, “USE OF 2,3,5-SUBSTITUTED THIOPHENE COMPOUND FOR PREVENTING, ALLEVIATION, OR TREATING MASTOCYTOSIS” (PHAROS IBIO CO., LTD, priority 2020, published 2023).
